From patent US11464784B2, “Inhibition of aminocylase 3 (AA3) in the treatment of cancer” (THE REGENTS OF THE UNIVERSITY OF CALIFORNIA, priority 2017, dated 2022)

What was measured:
[1] = test system: normal pancreatic duct epithelial cells; assay: MTT cell viability, normal pancreatic cells; format: cell-based, human
Excerpt: (§1) Human colon cancer cell lines COLO 205, HCT 116, LS 513 (all ATCC), primary colon epithelial cells (Cell Biologics), pancreatic cancer cell lines PANC-1, MIA PaCa-2, BxPC-3, and normal pancreatic duct epithelial cells (UCLA collection) were used in experiments. COLO 205, LS 513, BxPC-3 cells were cultivated in RPMI 1640 medium with 10% FBS, HCT 116 cells were cultivated in McCoy's 5A medium with 10% FBS, PANC-1 and MIA PaCa-2 cell lines were cultivated in DMEM medium with 10% FBS, and normal colon and pancreatic cells were maintained in Human Epithelial Cell Medium (Cell Biologics).
(§2) HCC cell lines HepG2, HuH7, primary hepatocytes, colon cell lines COLO 205, HCT 116, LS 513, primary colon epithelial cells, pancreatic cancer cell lines PANC-1, MIA PaCa-2, BxPC-3, and normal pancreatic duct epithelial cells were seeded in 96-well plates at a density 10,000 cells per well in complete medium. Next day medium was changed to medium containing 1% FBS and an AA3 inhibitor (3-100 μM). 24 h later cell viability was determined using the MTT (3-(4,5-dimethylthiazol-2-yl)-2,5-diphenyltetrazolium bromide) cell viability assay. Cells were incubated during 4 h at 37° C. with 150 μl fresh media containing 0.5 mg/ml MTT. Then 50 μl of 20% SDS in 25 mM HCl was added to each well, incubated for 4 h and the optical density at 570 nm was measured on a VMax Kinetic Microplate Reader (Molecular Devices, Sunnyvale, Calif.).

[2] = test system: colon cancer cell lines COLO 205, HCT 116, LS 513; assay: MTT cell viability, colon cancer cell lines; format: cell-based, human
Excerpt: as §1, §2

[3] = test system: pancreatic cancer cell lines PANC-1, MIA PaCa-2, BxPC-3; assay: MTT cell viability, pancreatic cancer cell lines; format: cell-based, human
Excerpt: as §1, §2

[4] = test system: HuH7 cells; assay: Levels of FC and NAFC in HuH7 cells (LC/MS); format: cell-based, human
Protocol: (§3) HUH7 and HepG2 cells were seeded in 6-well plates at a density 250,000 cells per well in complete medium. Next day the medium was changed to 2 ml DMEM with 1% FBS containing a 10-20 μM AA3 inhibitor. After 24 h incubation, the medium was collected, concentrated 10 times on a vacuum concentrator; 10 μl aliquots were used for quantitation by LC/MS and LC/MS/MS-MRM. The cells were trypsinized, washed in PBS and centrifuged at 2,000 g for 10 min. Then cell pellet was lysed on ice in 50 μl of 20 mM Tris-HCl, pH 7.5, containing 1% dodecyl maltoside (DDM) and 1× protease inhibitor cocktail (Sigma/Aldrich). After centrifugation (14,000 g, 10 min) the supernatants were diluted 4 times with methanol and centrifuged (14,000 g, 10 min), then the supernatants were diluted 10 times with water, and 10 μl aliquots were used for quantitation by LC/MS and LC/MS/MS-MRM as described above expect electrospray ionization was used with an Agilent 6460 triple quadrupole mass spectrometer.

[5] = test system: HepG2 cells; assay: MTT cell viability, HepG2; format: cell-based, human; details: HepG2, within the micromolar range, 24 h
Protocol: as §2
(§4) To study the effect of AA3 silencing, HepG2 and HUH7 cells seeded in 96-well plates were transfected with 2 pmol AA3 siRNA using the Lipofectamine RNAiMAX reagent as per the manufacturer protocol. Cell viability was measured in the MTT assay 48 h later as described.

[6] = test system: normal primary hepatocytes; assay: MTT cell viability, normal primary hepatocytes; format: cell-based; details: inhibitor 10: 0-50 μM range; inhibitor 11: in comparison with HCC cell lines
Protocol: as §2, §4

[7] = test system: membrane associated Ras in HepG2 cells; assay: Membrane associated Ras in HepG2 cells (immunoblot); format: cell-based, human; details: HepG2, 24 h
Protocol: Cultured HCC cells and primary hepatocytes were washed with PBS buffer, treated with 0.25% Trypsin-EDTA solution (Corning) and precipitated at 1,000 rpm for 5 min. For protein extraction, HCC cells were lysed on ice by vortexing every 5 min for 30 min in RIPA buffer containing 20 mM Tris-HCl (pH 7.5), 150 mM NaCl, 5 mM EDTA, 1% Triton X-100, 0.5% sodium deoxycholate, 0.1% SDS, and 1× Halt protease inhibitor cocktail (Thermo Scientific, Waltham, Mass.). Prenylated Ras other membrane associated proteins were extracted from HCC cells using a Mem-PER Plus Kit (Thermo Scientific) according to the manufacturer's protocol. […]
HepG2 cells were seeded in 6-well plates at a density 250,000 cells per well. […] 24 h later cells were collected, washed with PBS and the membrane associated Ras proteins were extracted as described above, resolved on SDS-PAGE, and detected with the anti-Ras antibody (EMD Millipore).
To study the effect of AA3 suppression on Ras membrane association, HepG2 and HuH7 cells seeded onto 6-well plates at the same density, were transfected with 50 pmol ACY3 (AA3) Silencer Select Pre-designed siRNA (Invitrogen, Grand Island, N.Y.) using the Lipofectamine RNAiMAX reagent (Invitrogen) following the manufacturer protocol. […] After 48 h incubation, membrane associated proteins were extracted and membrane associated Ras was determined by immunoblotting as described above.

[8] = test system: HepG2 cells; assay: Levels of FC and NAFC in HepG2 cells (LC/MS); format: cell-based, human
Protocol: as §3

[9] = test system: HuH7 cells; assay: MTT cell viability, HuH7; format: cell-based, human; details: HuH7, within the micromolar range, 24 h
Protocol: as §2, §4

[10] = test system: primary colon epithelial cells; assay: MTT cell viability, normal colon cells; format: cell-based, human; details: colon (FIG. 24)
Excerpt: as §1
as §2, with “Cells were incubated during 4 h at 37° C. with 150 μl fresh media containing 0.5 mg/ml MTT.” left out

[11] = target: T1, mAA3 (Mus musculus, UniProt Q91XE4); details: substrate of mAA3; cited from earlier work
T1 sequence (Q91XE4 1-318): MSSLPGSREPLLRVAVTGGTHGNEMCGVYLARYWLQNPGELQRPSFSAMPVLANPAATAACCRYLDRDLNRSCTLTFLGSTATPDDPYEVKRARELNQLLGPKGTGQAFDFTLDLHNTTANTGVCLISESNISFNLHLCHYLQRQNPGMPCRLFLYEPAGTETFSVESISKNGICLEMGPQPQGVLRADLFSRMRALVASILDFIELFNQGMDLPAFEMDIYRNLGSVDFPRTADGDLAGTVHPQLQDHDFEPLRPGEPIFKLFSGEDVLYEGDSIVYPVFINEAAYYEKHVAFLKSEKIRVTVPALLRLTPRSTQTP

[12] = substrate: CC(=O)C/C(C)=C/CC/C(C)=C/CC/C(C)=C/CC/C(C)=C/CN[C@@H](CS)C(=O)O; assay: Deacetylation of NAFC and NAGGC by human AA3; format: biochemical; details: other: substrate of human AA3; pH 7.5
Protocol: (§5) AA3 activity was measured using a previously described fluorescence assay. Human purified AA3 (1 μg), rat AA1 (1 μg) or immunoaffinity purified AA3 from HepG2 and HuH7 cells were assayed for 30 min at […] in […] of 50 mM sodium phosphate buffer, pH 7.5, containing 1 mM NAFC or NAGGC both from Cayman Chemical (Ann Arbor, Mich.). Then 100 μl of the reaction mixture was added to 1 ml of 50 mM sodium phosphate buffer containing 1 mM fluorescamine, and fluorescence was measured (390 nm excitation, 475 nm emission).
(§6) To study the deacetylation of NAFC and NAGGC mediated by AA3, 50 μl aliquots from the reaction assays were injected onto Agilent Eclipse Plus C18 reverse phase HPLC column equilibrated with 0.1% formic acid, and eluted with acetonitrile/0.1% formic acid gradient (0-90%, 20 min). The effluent from the column was passed to an Ionspray ion source connected to a triple quadrupole mass-spectrometer (MS) API III+(PerkinElmer, Boston, Mass.). NAFC and NAGGC (Cayman Chemical) were used for MS calibration.

[13] = substrate: CC(=O)CC(C)=CCCC(C)=CCCC(C)=CCN[C@@H](CS)C(=O)O; assay: Deacetylation of NAFC and NAGGC by human AA3; format: biochemical; details: other: substrate of human AA3; pH 7.5
Protocol: as §5, §6

[14] = lines expressing mutant (mut) KRas
[15] = HuH7, 10-20 μM inhibitor, 24 h, vs untreated
[16] = HepG2, 10-20 μM inhibitor, 24 h, vs untreated

With `Cc1ccc(N2C(=O)/C(=C/c3cc([N+](=O)[O-])cc(Br)c3O)SC2=S)c(C)c1` [Inhibitor 3, (5Z)-5-(3-Bromo-2-hydroxy-5-nitrobenzylidene)-3-(2,4-dimethylphenyl)-2-thioxo-1,3-thiazolidin-4-one] the “toxicity for pancreatic normal cells” value [1] was “toxic”, the “growth of colon cancer cell lines” value [2, 14] was “suppress growth” and the “toxicity for pancreatic cancer cells” value [3] was “toxic”.

With `COc1ccc(CSc2nc3cc(S(N)(=O)=O)ccc3n2C)cc1F` [Inhibitor 11, 2-[(3-Fluoro-4-methoxybenzyl)sulfanyl]-1-methyl-1H-benzimidazole-5-sulfonamide] the “FC level decreased by” value [4, 15] was “approximately 50%”, the “level of NAFC” value [4, 15] was “significantly increased” and the “[FC]/[NAFC] ratio” value ([4]; HuH7 treated cells (untreated ~2.8)) was about 0.9. For the same molecule, the “toxicity for pancreatic normal cells” value [1] was “toxic”, the “growth of colon cancer cell lines” value [2, 14] was “suppress growth” and the “toxicity (cell viability)” value [5] was “toxic”. The “toxicity to normal primary hepatocytes” value [6] was “significantly less toxic”, the “level of the membrane associated Ras decreased by, % of control” value [7] was about 50% and the FC level [8, 16] was “not significantly changed”. For the same molecule, the “level of NAFC” value [8, 16] was “significantly increased”, the “[FC]/[NAFC] ratio” value ([8]; HepG2 treated cells (untreated ~8.4)) was about 2.8 and the “toxicity for pancreatic cancer cells” value [3] was “toxic”. For the same molecule, the “toxicity (cell viability)” value [9] was “toxic”.

For `Cc1ccc(-n2sc3ccccc3c2=O)cc1` [Inhibitor 21, 2-(4-methylphenyl)-1,2-benzothiazol-3-one], the “toxicity for pancreatic normal cells” value [1] was “toxic”, the “toxicity for normal vs cancer cell lines” value ([1]; pancreatic (FIG. 25)) was “significantly less toxic” and the “growth of colon cancer cell lines” value ([2]; lines expressing wild type (wt) or mutant (mut) KRas) was “suppress growth”. The “toxicity for normal vs cancer cell lines” value [10] was “significantly less toxic”, the “toxicity for pancreatic cancer cells” value [3] was “toxic” and the “efficiency for pancreatic cell lines” value ([3]; lines expressing either wild type (wt) or mutant (mut) KRas) was “efficient”.

For `CC(=O)N[C@@H](CSC(Cl)(Cl)C(F)F)C(=O)O` [N-Acetyl-S-(2,2-difluoro-1,1-dichloroethyl)-L-cysteine], the “Vmax, times lower than N-acetyl-S-(2,2-dichloro-1,1-difluoroethyl)-L-cysteine” value [11] is listed as about 30 times and the “affinity, times higher than N-acetyl-S-(2,2-dichloro-1,1-difluoroethyl)-L-cysteine” value [11] is listed as about 18 times.

B1: human AA3 (Homo sapiens) (protein)
chain: MCSLPVPREPLRRVAVTGGTHGNEMSGVYLARHWLHAPAELQRASFSAVPVLANPAATSGCRRYVDHDLNRTFTSSFLNSRPTPDDPYEVTRARELNQLLGPKASGQAFDFVLDLHNTTANMGTCLIAKSSHEVFAMHLCRHLQLQYPELSCQVFLYQRSGEESYNLDSVAKNGLGLELGPQPQGVLRADIFSRMRTLVATVLDFIELFNQGTAFPAFEMEAYRPVGVVDFPRTEAGHLAGTVHPQLQDRDFQPLQPGAPIFQMFSGEDLLYEGESTVYPVFINEAAYYEKGVAFVQTEKFTFTVPAMPALTPAPSPAS
notes: 6His (N); made in house; host or cells: E. coli
Molecule B1 has a Km [12] of 140 µM, a kcat [12] of 7.2 s⁻¹ and a Km [13] of 25 µM. For the same molecule, the kcat [13] was 2 s⁻¹.
